{
  "source": "patent US8754104B2",
  "about": "“Crystalline salts of quinoline compounds and methods for preparing them” (Active Biotech AB, priority 2004, dated 2014)",
  "key": {"[1]": {"test": "Solubility in water at room temperature", "type": "physicochemical", "settings": "for solubility: water"}, "[2]": {"test": "Investigation of the degradation rate (reactivity index) in solution", "type": "physicochemical", "settings": "1-% 0.01M hydrochloric acid in n-propanol, 45 to 60° C., HPLC; relative to Roquinimex defined to 1.0; index 2.0 = 26% per hour", "experimental": "The degradation rate, hereinafter called the reactivity index, of compound of formula (I) was determined in solution. Roquinimex (Merck Index 12th Ed., No. 8418; Linomide®, LS2616, N-methyl-N-phenyl-1,2-dihydro-4-hydroxy-1-methyl-2-oxo-3-quinolinecarboxamide) was selected as a reference compound with the reactivity index defined to 1.0. A medium of 1-% 0.01M hydrochloric acid in n-propanol was selected. The reaction temperature was in the range of 45 to 60° C. The 3-quinolinecarboxamide derivative of formula (I) was added to the n-propanol solution. The reaction transfers the compound to an n-propylester. The reaction was stopped after 0, 2 and 4 hours, and analysis was carried out by means of HPLC with UV detection. The disappearance of the 3-quinolinecarboxamide derivative was used for evaluation of the reactivity index, but as an alternative also the formation of the n-propylester may be used. A reactivity index of […] at 60° C., a reactivity index of 2.0 corresponds to a degradation rate of 26% per hour etc."}, "[3]": {"type": "physicochemical", "settings": "for Degradation (percentage increase of related substances): 6 months", "experimental": "Upon storage without any special precautions being taken, some 3-quinolinecarboxamide derivatives of formula (I) are degraded at an unacceptable rate. At storage during accelerated conditions, that is 40° C. and a relative humidity of 75%, the degradation of some 3-quinoline-carboxamide derivatives can exceed 2% in a period of 6 months (Table 1).\nThis is evident from a comparison of N-ethyl-N-phenyl-5-chloro-1,2-dihydro-4-hydroxy-1-methyl-2-oxo-3-quinolinecarboxamide (hereinafter called compound A) with the sodium salt of N-ethyl-N-phenyl-5-chloro-1,2-dihydro-4-hydroxy-1-methyl-2-oxo-3-quinolinecarboxamide (hereinafter called compound A sodium). While at 40° C. and a relative humidity of 75% less than 0.01% of compound A sodium in solid state is converted to degradation products in a period of 24 months, 0.31% of compound A is degraded during a 6-month period. Another example of a 3-quinolinecarboxamide derivative susceptible to degradation is N-ethyl-N-phenyl-5-ethyl-1,2-dihydro-4-hydroxy-1-methyl-2-oxo-3-quinolinecarboxamide (hereinafter called compound B), see Table 1."}, "[4]": {"test": "Compatibility study, binary mixtures (1:1) of excipient and test substance", "type": "physicochemical", "text": "Generally, any tendency of instability is exacerbated when a compound of formula (II) is formulated with various excipients. It is clear that the salt form is preferred as drug substance in any binary mixtures of said compound."}, "[5]": {"settings": "1:1 mixture with Colloidal silica (Aerosil 200), +40° C./75% RH, 6 months"}, "[6]": {"settings": "1:1 mixture with Maize Starch, +40° C./75% RH, 6 months"}, "[7]": {"settings": "1:1 mixture with Mannitol (Pearlitol 200SD), +40° C./75% RH, 6 months"}, "[8]": {"settings": "1:1 mixture with Microcrystalline Cellulose (Avicel PH-, +40° C./75% RH, 6 months)"}},
  "note": "Structures can show the parent of a compound that is named as a salt. Where two headings read alike, the source gives them in different places.",
  "data": [
    {"smiles": "CCc1cccc2c1c(O)c(C(=O)N(CC)c1ccccc1)c(=O)n2C.[Ca]", "note": "[Example 6A, Crystalline N-Ethyl-N-phenyl-5-ethyl-1,2-dihydro-4-hydroxy-2-methyl-2-oxo-3-quinolinecarboxainide calcium salt]", "values": [
      {"measurement": "Solubility in water", "setting": "[1]; room temperature", "value": 0.3, "unit": "mg/mL"}
    ]},
    {"smiles": "CCN(C(=O)c1c(O)c2c(SC)cccc2n(C)c1=O)c1ccccc1", "note": "[Compound F, N-ethyl-N-phenyl-5-methylthio-1,2-dihydro-4-hydroxy-1-methyl-2-oxo-3-quinolinecarboxamide]", "values": [
      {"measurement": "Reactivity index", "setting": "[2]", "value": ">10"}
    ]},
    {"smiles": "Cc1cccc2c1c(O)c(C(=O)N(C)c1ccc(C(F)(F)F)cc1)c(=O)n2C", "note": "[Compound D, N-methyl-N-(4-trifluorophenyl)-1,2-dihydro-1,5-dimethyl-4-hydroxy-1-methyl-2-oxo-3-quinolinecarboxamide]", "values": [
      {"measurement": "Reactivity index", "setting": "[2]", "value": ">10"}
    ]},
    {"smiles": "CCc1cccc2c1c(O)c(C(=O)N(CC)c1ccccc1)c(=O)n2C.[Li]", "note": "[Example 5, N-Ethyl-N-phenyl-5-ethyl-1,2-dihydro-4-hydroxy-1-methyl-2-oxo-3-quinolinecarboxamide lithium salt]", "values": [
      {"measurement": "solubility", "setting": "[1]; room temperature", "value": 18000, "unit": "µg/mL"}
    ]},
    {"smiles": "CCc1cccc2c1c(O)c(C(=O)N(CC)c1ccccc1)c(=O)n2C", "note": "[Example 7, N-Ethyl-N-phenyl-5-ethyl-1,2-dihydro-4-hydroxy-1-methyl-2-oxo-3-quinolinecarboxamide zinc salt]", "values": [
      {"measurement": "solubility", "setting": "[1]; room temperature", "value": 300, "unit": "µg/mL"}
    ]},
    {"smiles": "CCN(C(=O)c1c(O)c2c(Cl)cccc2n(C)c1=O)c1ccccc1", "note": "[Compound A, N-ethyl-N-phenyl-5-chloro-1,2-dihydro-4-hydroxy-1-methyl-2-oxo-3-quinolinecarboxamide]", "values": [
      {"measurement": "“Shelf-life” (storage time without degradation exceeding 0.5%)", "setting": "[3]", "value": ">6", "unit": "months"},
      {"measurement": "Degradation (percentage increase of related substances)", "setting": "[3]", "value": 0.31, "unit": "%"},
      {"measurement": "Degradation (percentage increase of related substances)", "setting": "[4]; [5]", "value": 20, "unit": "%"},
      {"measurement": "Degradation (percentage increase of related substances)", "setting": "[4]; [6]", "value": 0.41, "unit": "%"},
      {"measurement": "Degradation (percentage increase of related substances)", "setting": "[4]; [7]", "value": 0.45, "unit": "%"},
      {"measurement": "Degradation (percentage increase of related substances)", "setting": "[4]; [8]", "value": 1.1, "unit": "%"},
      {"measurement": "Reactivity index", "setting": "[2]", "value": 3.1}
    ]},
    {"smiles": "CCN(C(=O)c1c(O)c2c(Cl)cccc2n(C)c1=O)c1ccccc1", "note": "[Example 3, N-Ethyl-N-phenyl-5-chloro-1,2-dihydro-4-hydroxy-1-methyl-2-oxo-3-quinolinecarboxamide calcium salt]", "values": [
      {"measurement": "Solubility in water (in words)", "setting": "[1]", "value": "sparingly soluble in water"},
      {"measurement": "solubility", "setting": "[1]; room temperature", "value": "~1000", "unit": "µg/mL"}
    ]},
    {"smiles": "CN(C(=O)c1c(O)c2c(Cl)cccc2n(C)c1=O)c1ccc(F)cc1F", "note": "[Compound C, N-methyl-N-(2,4-difluorophenyl)-5-chloro-1,2-dihydro-4-hydroxy-1-methyl-2-oxo-3-quinolinecarboxamide]", "values": [
      {"measurement": "Reactivity index", "setting": "[2]", "value": 2.6}
    ]},
    {"smiles": "CCc1cccc2c1c(O)c(C(=O)N(CC)c1ccccc1)c(=O)n2C", "note": "[Compound B, N-ethyl-N-phenyl-5-ethyl-1,2-dihydro-4-hydroxy-1-methyl-2-oxo-3-quinolinecarboxamide]", "values": [
      {"measurement": "“Shelf-life” (storage time without degradation exceeding 0.5%)", "setting": "[3]", "value": "<1", "unit": "months"},
      {"measurement": "Degradation (percentage increase of related substances)", "setting": "[3]", "value": 2.0, "unit": "%"},
      {"measurement": "Reactivity index", "setting": "[2]", "value": 4.6}
    ]},
    {"smiles": "CCN(C(=O)c1c(O)c2c(Cl)cccc2n(C)c1=O)c1ccccc1.[Na]", "note": "[Compound A sodium, N-Ethyl-N-phenyl-5-chloro-1,2-dihydro-4-hydroxy-1-methyl-2-oxo-3-quinolinecarboxamide sodium salt]", "values": [
      {"measurement": "“Shelf-life” (storage time without degradation exceeding 0.5%)", "setting": "[3]", "value": ">6", "unit": "months"},
      {"measurement": "Degradation (percentage increase of related substances)", "setting": "[3]", "value": "<0.01", "unit": "%^3"},
      {"measurement": "Converted to degradation products", "setting": "[3]; 24 months", "value": "less than 0.01%"},
      {"measurement": "Degradation (percentage increase of related substances)", "setting": "[4]; [5]", "value": 1.5, "unit": "%"},
      {"measurement": "Degradation (percentage increase of related substances)", "setting": "[4]; [6]", "value": 0.05, "unit": "%"},
      {"measurement": "Degradation (percentage increase of related substances)", "setting": "[4]; [7]", "value": 0.05, "unit": "%"},
      {"measurement": "Degradation (percentage increase of related substances)", "setting": "[4]; [8]", "value": 0.31, "unit": "%"},
      {"measurement": "solubility", "setting": "[1]; room temperature", "value": 138000, "unit": "µg/mL"}
    ]},
    {"smiles": "CN(C(=O)c1c(O)c2ccccc2n(C)c1=O)c1ccccc1", "note": "[Roquinimex, N-methyl-N-phenyl-1,2-dihydro-4-hydroxy-1-methyl-2-oxo-3-quinolinecarboxamide, reference compound]", "values": [
      {"measurement": "Reactivity index", "setting": "[2]", "value": 1.0}
    ]},
    {"smiles": "CCN(C(=O)c1c(O)c2c3c(ccc2n(C)c1=O)OCO3)c1ccccc1", "note": "[Compound E, N-ethyl-N-phenyl-5,6-methylenedioxy-1,2-dihydro-4-hydroxy-1-methyl-2-oxo-3-quinolinecarboxamide]", "values": [
      {"measurement": "Reactivity index", "setting": "[2]", "value": 2.9}
    ]}
  ]
}
